Series [1] concerns the target phencyclidine (PCP) receptor of the NMDA receptor complex. Briefly: [3H]-TCP binding (displacement of specific [3H]TCP binding). The arrangement: species or system Sprague-Dawley rats. The settings on record: [3H]-TCP 2.5 nM; rat cortex/hippocampus synaptic membranes; 30 min, 37° C., pH 7.7; read-out: IC50 value, 50% inhibition of total specific [3H]TCP binding. From the text:
The actions of compounds of formula I as an antagonist at the phencyclidine (PCP) receptor of the NMDA receptor complex can be shown using known in vitro tests, for example that described in Vignon et al., Brain Research, 280, 194-197 (1983). Vignon et al. disclose that tritiated N-(1-[2-thienyl]cyclohexyl)-3,4-[^3 H]-piperidine (also abbreviated as [^3 H]-TCP) binds to PCP binding sites (e.g. in rat brains) more strongly than PCP itself. […] [^3 H]-TCP thus provides a useful tool for measuring the binding affinities of compounds which bind to PCP receptors such as the PCP site in the NMDA receptor complex.
Specifically when it is desired to measure the binding affinity of a compound of formula I, a source of (brain) NMDA receptors is generated by preparing neuronal synaptic membranes from adult Sprague-Dawley rats. In brief, freshly dissected cortices and hippocampi were homogenized in 0.32 M sucrose (100 mg/ml). […]
The procedure for [^3 H]-TCP binding is adapted from Vignon et al. (1983). […] Non-specific binding is determined with 100 μM MK-801, a […] well known and characterized in the art as set forth for example, in European Patent Application 0 230 370, published July 29, 1987. […] Radioactivity is measured by liquid scintillation counting. The specific activity of the [^3 H]TCP is used to convert the radioactivity measured to concentration [^3 H]TCP bound. […]

For series [2], the system named is neuronal damage in the hippocampus. Briefly: gerbil ischemic model (bilateral carotid occlusion, neuronal damage in the hippocampus). It counts as in vivo, Mongolian gerbils. The settings on record: ip dose of 60 mg/kg. On the procedure: Typically an animal is rendered ischemic, for example, for transient occlusion of the carotid artery. A test compound is then administered to said ischemic animal at or about the time of the ischemica event. The ability of the test compound to reduce or prevent neurological degeneration may then be assessed, for example, by sacrificing the animal, followed by conventional histological examination of suitable brain tissue. For example, the following is a description of a suitable test in vivo using the gerbil model.
When testing in vivo using the gerbil ischemic model, adult female Mongolian gerbils (50-70 g) are anesthetized with 2 to 3% halothane. The bilateral common carotid arteries at the neck are exposed and occluded with microaneurysm clips. After 10 min (unless specified), the clips are removed and the blood flow through the carotid arteries is restored and the skin is sutured. […] Gross behavioral observations along with motor activity are recorded for 2 hr on the first (24 hr) day following the occlusion. […]
Sections (7 micron) are evaluated from each brain. […] The average brain damage rating score for each group is recorded, and the damage scores of the drug treated group are compared to the vehicle-treated group using Wilcoxcon ranks sum test.

pIC50: −log10 of the molar value.

Among the data in patent US5098925A, “Spiro-dihydroisoindole compounds” (ICI Americas Inc., priority 1990, dated 1992) are IC50, neuroprotective effect and overt toxic effects values, retold here.

For orientation: pIC50 means −log10 of the IC50, conventionally taken in molar units. On to `c1ccc2c(c1)CNC21CCCc2sccc21` (stereo not shown) [Example 20, Spiro[4,5,6,7-tetrahydrobenzothiophene-4,1'-(1,3-dihydroisoindole)]], for which the negative-log IC50 (pIC50) in series [1] is 6.22.

With `COc1cccc2c1CCC21NCc2ccccc21` (stereo not shown) [Example 18, 4-Methoxyspiro[indan-1,1'-(1,3-dihydroisoindole)]], in series [1], the pIC50 was 5.30.

Regarding `CN1Cc2ccccc2C12CCCc1sccc12` (stereo not shown) [Example 21, 2'-Methylspiro[4,5,6,7-tetrahydrobenzothiophene-4,1'-(1,3-dihydroisoindole)]], in series [2], the neuroprotective effect entry is recorded as “significant neuroprotective effect” and the overt toxic effects entry is on record as “without any overt toxic effects”.
